{"source": "patent US11767310B2", "about": "“Nicotinamide RIPK1 inhibitors” (AbbVie Inc., priority 2021, dated 2023)", "assay_in_all_cases": "Kinase binding screen", "conditions_in_all_cases": "read-out: Percent Control at 100 nM Compound Concentration", "key": {"TLK2": {"target": "TLK2 (Homo sapiens (Human), UniProt Q86UE8)"}, "FLT3(R834Q)": {"target": "FLT3(R834Q) (Homo sapiens (Human), UniProt P36888, R834Q)"}, "CDK4-cyclinD3": {"target": "CDK4-cyclinD3 (Homo sapiens (Human), UniProt P11802)", "sequence (P11802 whole entry)": "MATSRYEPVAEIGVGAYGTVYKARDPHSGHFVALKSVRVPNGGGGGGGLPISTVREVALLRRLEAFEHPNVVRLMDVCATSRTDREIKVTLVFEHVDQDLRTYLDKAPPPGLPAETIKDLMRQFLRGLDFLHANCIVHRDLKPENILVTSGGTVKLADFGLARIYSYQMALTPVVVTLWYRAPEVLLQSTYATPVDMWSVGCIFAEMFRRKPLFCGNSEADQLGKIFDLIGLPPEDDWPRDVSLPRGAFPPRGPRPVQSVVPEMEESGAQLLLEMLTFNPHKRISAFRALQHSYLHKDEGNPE", "sequence (P30281 whole entry partner)": "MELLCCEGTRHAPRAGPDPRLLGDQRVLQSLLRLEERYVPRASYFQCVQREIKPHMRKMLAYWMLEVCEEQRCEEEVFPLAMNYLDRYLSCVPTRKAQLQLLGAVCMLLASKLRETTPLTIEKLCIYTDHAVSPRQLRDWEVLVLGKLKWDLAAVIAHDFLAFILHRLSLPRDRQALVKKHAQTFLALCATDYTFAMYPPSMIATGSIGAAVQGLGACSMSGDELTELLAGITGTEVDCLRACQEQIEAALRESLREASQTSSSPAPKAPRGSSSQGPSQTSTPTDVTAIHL"}, "PIK3CA(E542K)": {"target": "PIK3CA(E542K) (Homo sapiens (Human), UniProt P42336, E542K)"}, "TLK1": {"target": "TLK1 (Homo sapiens (Human), UniProt Q9UKI8)"}, "DMPK2": {"target": "DMPK2 (Homo sapiens (Human), UniProt Q6DT37)", "sequence (Q6DT37 whole entry)": "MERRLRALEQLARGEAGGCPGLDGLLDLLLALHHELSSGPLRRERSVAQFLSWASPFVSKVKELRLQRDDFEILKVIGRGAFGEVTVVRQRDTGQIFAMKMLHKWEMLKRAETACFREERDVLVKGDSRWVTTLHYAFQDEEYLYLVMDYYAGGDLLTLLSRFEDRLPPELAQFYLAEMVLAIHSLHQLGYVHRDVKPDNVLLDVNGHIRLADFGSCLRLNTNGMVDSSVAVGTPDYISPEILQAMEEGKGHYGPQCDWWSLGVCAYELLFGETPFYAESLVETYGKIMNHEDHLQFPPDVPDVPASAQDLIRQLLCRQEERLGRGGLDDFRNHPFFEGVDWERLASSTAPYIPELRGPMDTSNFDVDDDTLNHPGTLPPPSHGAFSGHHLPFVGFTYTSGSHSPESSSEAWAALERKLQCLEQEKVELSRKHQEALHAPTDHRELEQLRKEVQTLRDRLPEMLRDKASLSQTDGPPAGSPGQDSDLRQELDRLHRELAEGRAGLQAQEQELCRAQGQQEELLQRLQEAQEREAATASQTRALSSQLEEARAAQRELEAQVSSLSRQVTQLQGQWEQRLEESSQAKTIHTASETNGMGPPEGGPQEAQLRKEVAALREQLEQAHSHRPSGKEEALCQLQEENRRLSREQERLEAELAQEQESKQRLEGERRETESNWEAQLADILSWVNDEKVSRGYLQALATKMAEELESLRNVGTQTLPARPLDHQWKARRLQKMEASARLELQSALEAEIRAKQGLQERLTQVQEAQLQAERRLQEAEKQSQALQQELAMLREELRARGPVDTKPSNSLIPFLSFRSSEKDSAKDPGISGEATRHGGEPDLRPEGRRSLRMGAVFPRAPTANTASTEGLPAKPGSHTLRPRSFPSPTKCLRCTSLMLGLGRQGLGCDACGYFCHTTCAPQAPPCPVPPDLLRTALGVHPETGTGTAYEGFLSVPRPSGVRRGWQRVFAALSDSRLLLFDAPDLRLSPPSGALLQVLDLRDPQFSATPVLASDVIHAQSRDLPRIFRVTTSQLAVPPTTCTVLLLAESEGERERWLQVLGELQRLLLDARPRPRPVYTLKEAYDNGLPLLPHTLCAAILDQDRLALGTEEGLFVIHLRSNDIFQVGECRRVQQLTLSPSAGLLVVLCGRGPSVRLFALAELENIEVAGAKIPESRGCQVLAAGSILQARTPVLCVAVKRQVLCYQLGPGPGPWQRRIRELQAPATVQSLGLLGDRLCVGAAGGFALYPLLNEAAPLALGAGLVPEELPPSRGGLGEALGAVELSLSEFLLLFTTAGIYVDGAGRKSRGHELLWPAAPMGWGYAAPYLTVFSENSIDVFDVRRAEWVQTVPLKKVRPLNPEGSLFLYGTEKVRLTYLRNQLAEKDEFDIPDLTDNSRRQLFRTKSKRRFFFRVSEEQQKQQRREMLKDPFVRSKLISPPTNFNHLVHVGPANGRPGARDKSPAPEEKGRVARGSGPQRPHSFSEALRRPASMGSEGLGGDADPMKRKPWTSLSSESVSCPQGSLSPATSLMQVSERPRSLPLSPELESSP"}, "[1]": {"target": "ABL1(Y253F)-pho sphorylated (Homo sapiens (Human), UniProt P00519, Y253F)"}, "ANKK1": {"target": "ANKK1 (Homo sapiens (Human), UniProt Q8NFD2)"}, "HASPIN": {"target": "HASPIN (Homo sapiens (Human), UniProt Q8TF76)", "sequence (Q8TF76 whole entry)": "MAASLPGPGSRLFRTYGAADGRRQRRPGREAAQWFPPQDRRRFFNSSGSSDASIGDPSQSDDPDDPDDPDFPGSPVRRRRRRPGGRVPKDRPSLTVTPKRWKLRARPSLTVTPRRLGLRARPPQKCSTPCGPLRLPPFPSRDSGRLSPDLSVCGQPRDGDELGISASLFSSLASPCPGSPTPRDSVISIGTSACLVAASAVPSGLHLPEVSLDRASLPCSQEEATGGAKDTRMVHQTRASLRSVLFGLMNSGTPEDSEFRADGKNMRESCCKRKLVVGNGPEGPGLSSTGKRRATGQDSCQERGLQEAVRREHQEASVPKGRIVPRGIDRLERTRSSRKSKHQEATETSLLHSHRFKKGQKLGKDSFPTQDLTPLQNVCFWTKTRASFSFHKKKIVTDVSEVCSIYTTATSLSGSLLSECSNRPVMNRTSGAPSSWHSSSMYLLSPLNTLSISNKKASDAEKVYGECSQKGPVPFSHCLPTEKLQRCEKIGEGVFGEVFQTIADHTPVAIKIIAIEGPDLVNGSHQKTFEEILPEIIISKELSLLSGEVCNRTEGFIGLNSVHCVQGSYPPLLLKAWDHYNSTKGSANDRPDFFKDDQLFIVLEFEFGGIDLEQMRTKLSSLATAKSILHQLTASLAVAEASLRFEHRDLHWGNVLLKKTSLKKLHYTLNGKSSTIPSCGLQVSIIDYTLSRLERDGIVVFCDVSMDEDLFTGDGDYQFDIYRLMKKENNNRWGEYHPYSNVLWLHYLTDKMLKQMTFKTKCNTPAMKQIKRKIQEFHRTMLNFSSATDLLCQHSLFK"}, "PDPK1": {"target": "PDPK1 (Homo sapiens (Human), UniProt O15530)"}, "MAPKAPK5": {"target": "MAPKAPK5 (Homo sapiens (Human), UniProt Q8IW41)"}, "SBK1": {"target": "SBK1 (Homo sapiens (Human), UniProt Q52WX2)"}, "YSK1": {"target": "YSK1 (Homo sapiens (Human), UniProt O00506)"}, "ERK1": {"target": "ERK1 (Homo sapiens (Human), UniProt P27361)"}, "JNK1": {"target": "JNK1 (Homo sapiens (Human), UniProt P45983)"}, "CHEK1": {"target": "CHEK1 (Homo sapiens (Human), UniProt O14757)"}, "TRKC": {"target": "TRKC (Homo sapiens (Human), UniProt Q16288)"}, "[2]": {"target": "RSK3(Kin.Dom.2-C-terminal) (Homo sapiens (Human), UniProt Q15349)", "sequence (Q15349 415-672)": "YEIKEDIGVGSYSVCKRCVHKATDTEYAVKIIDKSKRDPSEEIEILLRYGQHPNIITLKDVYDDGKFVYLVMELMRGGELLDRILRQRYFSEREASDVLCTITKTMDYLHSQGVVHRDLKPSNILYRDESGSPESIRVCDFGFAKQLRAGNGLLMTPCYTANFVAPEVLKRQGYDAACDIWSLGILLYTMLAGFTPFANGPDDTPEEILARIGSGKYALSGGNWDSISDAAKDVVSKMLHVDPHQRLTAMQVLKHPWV"}, "MLK3": {"target": "MLK3 (Homo sapiens (Human), UniProt Q16584)"}, "[3]": {"target": "ABL1(M351T)-phosphorylated (Homo sapiens (Human), UniProt P00519, M351T)"}, "NEK6": {"target": "NEK6 (Homo sapiens (Human), UniProt Q9HC98)", "sequence (Q9HC98 whole entry)": "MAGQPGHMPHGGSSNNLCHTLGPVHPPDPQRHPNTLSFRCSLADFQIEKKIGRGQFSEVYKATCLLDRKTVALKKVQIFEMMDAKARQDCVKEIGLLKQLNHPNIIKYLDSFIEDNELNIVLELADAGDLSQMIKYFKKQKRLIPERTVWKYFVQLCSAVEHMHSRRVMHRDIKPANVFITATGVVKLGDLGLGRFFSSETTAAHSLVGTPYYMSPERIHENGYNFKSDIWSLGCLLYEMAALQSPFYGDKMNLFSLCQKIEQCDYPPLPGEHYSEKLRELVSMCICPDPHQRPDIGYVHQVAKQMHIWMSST"}, "MAP3K2": {"target": "MAP3K2 (Homo sapiens (Human), UniProt Q9Y2U5)"}, "ACVRL1": {"target": "ACVRL1 (Homo sapiens (Human), UniProt P37023)", "sequence (P37023 22-503)": "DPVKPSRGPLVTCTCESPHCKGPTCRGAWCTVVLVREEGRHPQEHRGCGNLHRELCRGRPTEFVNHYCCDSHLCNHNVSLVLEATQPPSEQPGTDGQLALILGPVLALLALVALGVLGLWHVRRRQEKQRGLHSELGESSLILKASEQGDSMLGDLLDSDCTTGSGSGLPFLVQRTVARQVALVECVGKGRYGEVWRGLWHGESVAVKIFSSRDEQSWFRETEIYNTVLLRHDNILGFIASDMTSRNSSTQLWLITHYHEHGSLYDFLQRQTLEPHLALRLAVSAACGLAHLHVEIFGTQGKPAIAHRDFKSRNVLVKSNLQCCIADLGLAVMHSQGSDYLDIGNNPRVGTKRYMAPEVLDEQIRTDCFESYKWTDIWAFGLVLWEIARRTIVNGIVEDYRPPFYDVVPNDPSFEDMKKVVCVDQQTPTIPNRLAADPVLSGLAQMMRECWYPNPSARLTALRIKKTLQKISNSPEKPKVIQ"}, "ACVR1": {"target": "ACVR1 (Homo sapiens (Human), UniProt Q04771)"}, "SRPK3": {"target": "SRPK3 (Homo sapiens (Human), UniProt Q9UPE1)"}, "PCTK3": {"target": "PCTK3 (Homo sapiens (Human), UniProt Q07002)"}, "PYK2": {"target": "PYK2 (Homo sapiens (Human), UniProt Q14289)", "sequence (Q14289 whole entry)": "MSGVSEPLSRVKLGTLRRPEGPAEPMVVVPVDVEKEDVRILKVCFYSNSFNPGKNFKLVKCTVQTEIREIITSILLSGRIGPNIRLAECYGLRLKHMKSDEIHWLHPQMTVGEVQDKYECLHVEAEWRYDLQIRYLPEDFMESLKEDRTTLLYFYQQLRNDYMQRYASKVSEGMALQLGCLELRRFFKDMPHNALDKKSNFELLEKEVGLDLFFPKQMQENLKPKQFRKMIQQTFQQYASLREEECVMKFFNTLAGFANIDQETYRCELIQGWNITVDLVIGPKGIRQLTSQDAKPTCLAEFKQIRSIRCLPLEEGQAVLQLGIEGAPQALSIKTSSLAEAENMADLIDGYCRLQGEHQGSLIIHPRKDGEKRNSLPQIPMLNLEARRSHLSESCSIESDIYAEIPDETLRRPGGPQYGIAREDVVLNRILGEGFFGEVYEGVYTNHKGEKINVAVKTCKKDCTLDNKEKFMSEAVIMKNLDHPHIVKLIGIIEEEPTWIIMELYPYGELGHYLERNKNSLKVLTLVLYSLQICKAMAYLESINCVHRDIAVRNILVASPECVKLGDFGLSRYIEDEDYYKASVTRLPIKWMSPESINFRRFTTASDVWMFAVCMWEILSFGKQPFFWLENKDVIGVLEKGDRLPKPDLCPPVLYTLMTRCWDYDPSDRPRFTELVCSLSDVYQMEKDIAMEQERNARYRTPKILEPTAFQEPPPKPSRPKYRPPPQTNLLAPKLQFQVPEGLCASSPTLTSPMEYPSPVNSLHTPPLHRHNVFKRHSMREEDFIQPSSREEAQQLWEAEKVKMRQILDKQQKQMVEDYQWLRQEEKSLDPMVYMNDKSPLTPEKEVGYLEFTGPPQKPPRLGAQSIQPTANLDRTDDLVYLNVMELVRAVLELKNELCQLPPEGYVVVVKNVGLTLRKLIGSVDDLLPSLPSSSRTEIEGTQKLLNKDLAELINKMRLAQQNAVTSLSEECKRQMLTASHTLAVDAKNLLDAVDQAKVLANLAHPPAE"}, "MLK2": {"target": "MLK2 (Homo sapiens (Human), UniProt Q02779)"}}, "note": "Like-named read-outs stand apart in the source and are kept apart here.", "data": [{"smiles": "CN(C[C@@H](O)Cc1ccccc1)C(=O)c1cncc(C#Cc2cnn(C(F)F)c2)c1", "note": "[Example 2, (S)-5-((1-(difluoromethyl)-1H-pyrazol-4-yl)ethynyl)-N-(2-hydroxy-3-phenylpropyl)-N-methylnicotinamide]", "values": [{"measurement": "remaining activity at 0.1 µM", "setting": "TLK2; TLK2", "result": 100, "unit": "%"}, {"measurement": "remaining activity at 0.1 µM", "setting": "FLT3(R834Q); FLT3(R834Q)", "result": 100, "unit": "%"}, {"measurement": "remaining activity at 0.1 µM", "setting": "CDK4-cyclinD3; CDK4-cyclinD3", "result": 100, "unit": "%"}, {"measurement": "remaining activity at 0.1 µM", "setting": "PIK3CA(E542K); PIK3CA(E542K)", "result": 89, "unit": "%"}, {"measurement": "remaining activity at 0.1 µM", "setting": "TLK1; TLK1", "result": 100, "unit": "%"}, {"measurement": "remaining activity at 0.1 µM", "setting": "DMPK2; DMPK2", "result": 97, "unit": "%"}, {"measurement": "remaining activity at 0.1 µM", "setting": "[1]; ABL1(Y253F)-pho sphorylated", "result": 100, "unit": "%"}, {"measurement": "remaining activity at 0.1 µM", "setting": "ANKK1; ANKK1", "result": 100, "unit": "%"}, {"measurement": "remaining activity at 0.1 µM", "setting": "HASPIN; HASPIN", "result": 86, "unit": "%"}, {"measurement": "remaining activity at 0.1 µM", "setting": "PDPK1; PDPK1", "result": 99, "unit": "%"}, {"measurement": "remaining activity at 0.1 µM", "setting": "MAPKAPK5; MAPKAPK5", "result": 94, "unit": "%"}, {"measurement": "remaining activity at 0.1 µM", "setting": "SBK1; SBK1", "result": 97, "unit": "%"}, {"measurement": "remaining activity at 0.1 µM", "setting": "YSK1; YSK1", "result": 100, "unit": "%"}, {"measurement": "remaining activity at 0.1 µM", "setting": "ERK1; ERK1", "result": 97, "unit": "%"}, {"measurement": "remaining activity at 0.1 µM", "setting": "JNK1; JNK1", "result": 92, "unit": "%"}, {"measurement": "remaining activity at 0.1 µM", "setting": "CHEK1; CHEK1", "result": 100, "unit": "%"}, {"measurement": "remaining activity at 0.1 µM", "setting": "TRKC; TRKC", "result": 100, "unit": "%"}, {"measurement": "remaining activity at 0.1 µM", "setting": "[2]; RSK3(Kin.Dom.2-C-terminal)", "result": 100, "unit": "%"}, {"measurement": "remaining activity at 0.1 µM", "setting": "MLK3; MLK3", "result": 95, "unit": "%"}, {"measurement": "remaining activity at 0.1 µM", "setting": "[3]; ABL1(M351T)-phosphorylated", "result": 86, "unit": "%"}, {"measurement": "remaining activity at 0.1 µM", "setting": "NEK6; NEK6", "result": 100, "unit": "%"}, {"measurement": "remaining activity at 0.1 µM", "setting": "MAP3K2; MAP3K2", "result": 99, "unit": "%"}, {"measurement": "remaining activity at 0.1 µM", "setting": "ACVRL1; ACVRL1", "result": 100, "unit": "%"}, {"measurement": "remaining activity at 0.1 µM", "setting": "ACVR1; ACVR1", "result": 100, "unit": "%"}, {"measurement": "remaining activity at 0.1 µM", "setting": "SRPK3; SRPK3", "result": 90, "unit": "%"}, {"measurement": "remaining activity at 0.1 µM", "setting": "PCTK3; PCTK3", "result": 100, "unit": "%"}, {"measurement": "remaining activity at 0.1 µM", "setting": "PYK2; PYK2", "result": 100, "unit": "%"}, {"measurement": "remaining activity at 0.1 µM", "setting": "MLK2; MLK2", "result": 66, "unit": "%"}]}, {"smiles": "CN(C[C@H](Cc1ccccc1)OP(=O)(O)O)C(=O)c1cncc(C#Cc2cnn(C(F)F)c2)c1", "note": "[Example 19, (S)-1-(5-((1-(difluoromethyl)-1H-pyrazol-4-yl)ethynyl)-N-methylnicotinamido)-3-phenylpropan-2-yl dihydrogen phosphate]", "values": [{"measurement": "remaining activity at 0.1 µM", "setting": "TLK2", "result": 100, "unit": "%"}, {"measurement": "remaining activity at 0.1 µM", "setting": "FLT3(R834Q)", "result": 100, "unit": "%"}, {"measurement": "remaining activity at 0.1 µM", "setting": "CDK4-cyclinD3", "result": 100, "unit": "%"}, {"measurement": "remaining activity at 0.1 µM", "setting": "PIK3CA(E542K)", "result": 81, "unit": "%"}, {"measurement": "remaining activity at 0.1 µM", "setting": "TLK1", "result": 100, "unit": "%"}, {"measurement": "remaining activity at 0.1 µM", "setting": "DMPK2", "result": 96, "unit": "%"}, {"measurement": "remaining activity at 0.1 µM", "setting": "[1]", "result": 100, "unit": "%"}, {"measurement": "remaining activity at 0.1 µM", "setting": "ANKK1", "result": 100, "unit": "%"}, {"measurement": "remaining activity at 0.1 µM", "setting": "HASPIN", "result": 83, "unit": "%"}, {"measurement": "remaining activity at 0.1 µM", "setting": "PDPK1", "result": 100, "unit": "%"}, {"measurement": "remaining activity at 0.1 µM", "setting": "MAPKAPK5", "result": 96, "unit": "%"}, {"measurement": "remaining activity at 0.1 µM", "setting": "SBK1", "result": 95, "unit": "%"}, {"measurement": "remaining activity at 0.1 µM", "setting": "YSK1", "result": 97, "unit": "%"}, {"measurement": "remaining activity at 0.1 µM", "setting": "ERK1", "result": 95, "unit": "%"}, {"measurement": "remaining activity at 0.1 µM", "setting": "JNK1", "result": 87, "unit": "%"}, {"measurement": "remaining activity at 0.1 µM", "setting": "CHEK1", "result": 100, "unit": "%"}, {"measurement": "remaining activity at 0.1 µM", "setting": "TRKC", "result": 68, "unit": "%"}, {"measurement": "remaining activity at 0.1 µM", "setting": "[2]", "result": 100, "unit": "%"}, {"measurement": "remaining activity at 0.1 µM", "setting": "MLK3", "result": 89, "unit": "%"}, {"measurement": "remaining activity at 0.1 µM", "setting": "[3]", "result": 97, "unit": "%"}, {"measurement": "remaining activity at 0.1 µM", "setting": "NEK6", "result": 100, "unit": "%"}, {"measurement": "remaining activity at 0.1 µM", "setting": "MAP3K2", "result": 95, "unit": "%"}, {"measurement": "remaining activity at 0.1 µM", "setting": "ACVRL1", "result": 100, "unit": "%"}, {"measurement": "remaining activity at 0.1 µM", "setting": "ACVR1", "result": 100, "unit": "%"}, {"measurement": "remaining activity at 0.1 µM", "setting": "SRPK3", "result": 100, "unit": "%"}, {"measurement": "remaining activity at 0.1 µM", "setting": "PCTK3", "result": 100, "unit": "%"}, {"measurement": "remaining activity at 0.1 µM", "setting": "PYK2", "result": 100, "unit": "%"}, {"measurement": "remaining activity at 0.1 µM", "setting": "MLK2", "result": 69, "unit": "%"}]}]}
